{"source": "patent US20220339187A1", "about": "“ANTIMICROBIAL PEPTIDE-SELENIUM NANOPARTICLES” (The University of Melbourne, priority 2019, published 2022)", "key": {"E. coli ATCC 25922": {"system": "E. coli ATCC 25922", "test": "Membrane potential change test (BacLight, DiOC2(3))", "format": "cell-based, Escherichia coli", "conditions": "6.25 or 12.5 μg/ml (CCCP 5 μM)", "experimental": "(§1) Membrane potential change was measured using a BacLight Bacterial Membrane Potential Kit (Invitrogen). The bacterial strain methicillin-sensitive S. aureus (MSSA) ATCC 29213, E. faecalis ATCC 29212, E. coli ATCC 25922 were cultured in MHB at 37° C. 50 μL of different concentrations of Se NPs, Se NP-ε-PL or pure ε-PL in PBS solution was added into each well of 96-well microplates. 50 μL MHB with 2.5×10^6 cells/mL bacteria was then added into each well. 50 μL MHB with 2.5×10^6 cells/mL bacteria was added to 50 μL PBS to act as untreated control. Carbonyl cyanide 3-chlorophenylhydrazone (CCCP) was added to untreated control at a final concentration of 5 μM to act as fully depolarized control. 3,3′-Diethyloxacarbocyanine Iodide (DiOC2(3)) was added to all wells at a final concentration of […]. […] The untreated (polarized) and CCCP-treated (fully depolarized) controls were used to determine the percentage of depolarized cells. Two independent experiments were done for this test, and two technical replicates were adopted for each independent experiment."}, "[1]": {"system": "methicillin-sensitive S. aureus (MSSA) ATCC 29213", "test": "ROS production test (CellROX Orange, flow cytometry)", "format": "cell-based, Staphylococcus aureus", "conditions": "6.25 or 12.5 μg/ml", "experimental": "(§2) The bacterial strains methicillin-sensitive S. aureus (MSSA) ATCC 29213, E. faecalis ATCC 29212, E. coli ATCC 25922 were cultured in MHB at 37° C. 50 μL of different concentration of Se NPs, Se NP-ε-PL or pure ε-PL in PBS solution was added into each well of a 96-well microplate. 50 μL MHB with 2.5×10^6 cells/mL bacteria was then added into each well. After 90 min incubation at 37° C., CellROX® Orange Reagent was added into each well at a final concentration of 750 nM. The cells were incubated for a further 1 h. The fluorescence from the CellROX Orange Reagent was measured on FL-3 (red fluorescence channel) using the Cell Lab Quanta SC MPL flow cytometer (Beckman Coulter). Two independent experiments were done for this test, and two technical replicates were adopted for each independent experiment."}, "[2]": {"system": "Escherichia coli (E. coli) ATCC 25922", "test": "CFU measuring assay / MBC calculation", "format": "cell-based", "conditions": "90 min at 37° C., linear regression, mean ± s.d.", "experimental": "For the CFU measuring assay, 50 μL of different concentrations of Se NPs, Se NP-ε-PL or pure ε-PL in PBS solution was added into each well of 96-well microplates, then 50 μL MHB with 2.5×10^6 cells/mL bacteria were added into each well. After incubating the microplate at 37° C. for 90 min, the bacterial solutions were diluted 10^−1, 10^−2, 10^−3 and 10^−4 times, then 10 μL of each dilution was transferred onto agar plates with MHB. The agar plates were incubated overnight, before the bacterial colony forming units were observed and measured.\nConcentration-killing curves were plotted with CFUs/mL as a function of antibacterial agent concentration, and linear regression analysis was used to determine the lowest concentration (MBC) at which the CFU/mL becomes zero."}, "[3]": {"system": "multidrug-resistant K. pneumoniae (MDR)", "test": "Bacterial growth inhibition test / MIC calculation", "format": "cell-based, Klebsiella pneumoniae", "conditions": "MHB, 37° C., growth curves, linear regression, mean ± s.d.", "excerpt": "The bacterial strains methicillin-sensitive Staphylococcus aureus (S. aureus) ATCC 29213, methicillin-resistant Staphylococcus aureus (MRSA) ATCC 43300, Enterococcus faecalis (E. faecalis) ATCC 29212, Escherichia coli (E. coli) ATCC 25922, Acinetobacter baumannii (A. baumannii) 2208 ATCC19606, Pseudomonas aeruginosa (P. aeruginosa) strain PAO1-LAC ATCC 47085, Klebsiella pneumoniae (K. pneumoniae) ATCC 13883 and multidrug-resistant K. pneumoniae (MDR), were obtained from the culture collection of the Oral Health Cooperative Research Centre, The Melbourne Dental School, University of Melbourne, Australia. Bacteria were cultured in Mueller Hinton Broth (MHB) at 37° C. […] The plate was put into an iEMS microplate reader (Pathtech Pty Ltd, Melbourne, Australia) at a temperature of 37° C. to monitor bacterial growth by measuring the absorbance at wavelength of 630 nm for 24 h. Background absorbance values due to the Se NP solutions were subtracted from the measured absorbance values.\nThe absorbance values from bacteria growth curves at the time when the stationary phase starts (tsps) were taken and calculated as a percentage of the untreated control (Z=OD5/OD6×100%, where OD5 represents absorbance at tsps of experimental groups and OD6 represents the absorbance at tsps of the negative control group; all absorbance values had the culture medium background values subtracted). […]"}, "mice": {"system": "mice", "conditions": "dosage of 5 g/kg; cited from earlier work"}, "[4]": {"system": "methicillin-sensitive S. aureus (MSSA) ATCC 29213", "test": "Membrane potential change test (BacLight, DiOC2(3))", "format": "cell-based, Staphylococcus aureus", "conditions": "6.25 or 12.5 μg/ml", "experimental": "as §1"}, "E. faecalis ATCC 29212 [5]": {"system": "E. faecalis ATCC 29212", "test": "ROS production test (CellROX Orange, flow cytometry)", "format": "cell-based, Enterococcus faecalis", "conditions": "6.25 or 12.5 μg/ml", "experimental": "as §2"}, "E. faecalis ATCC 29212 [6]": {"system": "E. faecalis ATCC 29212", "test": "Helium ion microscopy (HIM) of treated bacteria", "format": "cell-based, Enterococcus faecalis", "conditions": "90 min incubation", "experimental": "The morphologies of bacterial strains methicillin-sensitive S. aureus (MSSA) ATCC 29213, E. faecalis ATCC 29212, E. coli ATCC 25922, A. baumannii 2208 ATCC19606 and K. pneumoniae ATCC 13883 after treatment with Se NPs, Se NP-ε-PL or pure ε-PL were observed using Helium Ion Microscopy (HIM, Zeiss, Germany). The samples were prepared in the following steps. First, 100 μL of 125 μg/mL Se NPs, Se NP-ε-PL or pure ε-PL in PBS solution was added to each well of 96-well microplates, 100 μL pure PBS was used as untreated control. Afterwards, 100 μL MHB with 1.25×10^7/mL bacteria was added to each well. After 90 min incubation, 10 μL of both treated and untreated bacteria was dropped on clean silicon wafers, and they were then dried at 37° C. for 20 min. The dried samples were transferred to a 12-well plate, 2.5% glutaraldehyde was added to each well to fix the bacteria cells for 1 h, then gradient ethanol solution (30%, 50%, 60%, 70%, 80%, 90%, 95% and 100%) was used for dehydration. The prepared samples were dried in the fume hood overnight before use."}, "E. faecalis ATCC 29212 [7]": {"system": "E. faecalis ATCC 29212", "test": "Membrane potential change test (BacLight, DiOC2(3))", "format": "cell-based, Enterococcus faecalis", "conditions": "6.25 or 12.5 μg/ml", "experimental": "as §1"}}}
{"substance": "ε-poly-L-lysine [ε-PL]", "values": [{"measurement": "depolarisation of cell membrane", "setting": "E. coli ATCC 25922", "value": "depolarized cell membranes"}, {"measurement": "ROS production (high ROS production cells)", "setting": "[1]", "value": "slight promotion of ROS production"}, {"measurement": "MBC", "setting": "[2]", "value": "24.3 ± 1.2", "unit": "mg/L"}, {"measurement": "MIC", "setting": "[3]", "value": "26.5 ± 0.5", "unit": "mg/L"}, {"measurement": "mortality, acute oral toxicity", "setting": "mice", "value": "no mortality"}, {"measurement": "depolarisation of cell membrane", "setting": "[4]", "value": "depolarized cell membranes"}, {"measurement": "ROS production (high ROS production cells)", "setting": "E. faecalis ATCC 29212 [5]", "value": "almost no promoting effects on ROS production"}, {"measurement": "cell morphology after treatment (HIM)", "setting": "E. faecalis ATCC 29212 [6]", "value": "some were dead and distorted"}, {"measurement": "depolarisation of cell membrane", "setting": "E. faecalis ATCC 29212 [7]", "value": "depolarized cell membranes"}]}
